We go through two compounds from patent publication US6468522B1, “Controlled release of thioamide moiety-containing therapeutic agents” (priority 1999, dated 2002).

The structures appear in SMILES notation.

A short description of data set [1]: Reductive release of drug from disulfide conjugate (DTT or glutathione, TLC). Conditions: organic phase. It is filed as physicochemical. The method, then: III Release of UC781 from mPEG-S—S-UC781. […] Then, 0.5 ml of 6 mM dithiothreitol (DTT) in DCM was added to the conjugate solution.
After 2 hours at room temperature, the reaction mixture was taken to dryness by speed vacuum.
In an alternate procedure to the above, cysteamine may be used in place of 1-amino-2-methyl-2-propanethiol, which produces a UC781 conjugate (PEG-CO—NH—CH2—CH2—S—S—UC781) with less sterically hindered thiol groups and therefore with a ˜100-fold faster release under reducing conditions.

The target in data set [2] is HIV-RT (Human immunodeficiency virus type 1 group M subtype B, UniProt P03366). The data set is described as follows: Reverse transcriptase (RT) inhibition assay. It is filed as biochemical. Conditions: for UC781 concentration found by RT assay: predicted 30 nM. The method, then:
UC781 standard solutions were prepared in DMSO. The stock solution of HIV-RT (13.5 Units/μl) was diluted to 25 mUnits/μl in buffer comprising 50 mM Tris-HCl, pH 8.0, 1 mM DTT, 0.01% bovine serum albumin (BSA). Each assay tube contained 40 μl of a solution comprising 50 mM Tris-HCl, pH 8.0, 4 mM DTT, 12.4 mM MgCl2, 50 mM KCl, 0.01% BSA, 10 μg/ml poly(A), 0.01 mM dTTP and […] [α-^32P]dTTP, 2 μl of diluted RT and 3 μl of sample dissolved in DMSO. Samples were incubated at 37° C. for 30 minutes. The polymerization reaction was stopped by adding 0.15 mg/ml of salmon sperm DNA and chilling on ice. An aliquot (20 μl) of each reaction mixture was spotted onto square stamped GF/C filter paper (12.5 cm in diameter) presoaked with 10% trichloroacetic acid (TCA). After the spots were dry, the paper was rinsed with 50 ml of ice cold 10% TCA twice, 50 ml of ice cold water three times and then once with 25 ml of ice cold 95% ethanol in a Buchner funnel. The paper was dried, cut into squares and each square was counted in 4 ml of LSC cocktail (National Diagnostics).
The reverse transcriptase inhibition (RT) assay was used to confirm that the compound released in blood is truly active UC781. […] As a control, authentic UC781 was run on the HPLC column and the peak was collected at 24.2 minutes. […] An aliquot of each HPLC fraction, providing a predicted concentration of 30 nM in the RT assay, was analyzed.

The nature of data set [3]: Kinetics following intravenous injection of PEG-S-S-UC781 in rabbits. It is filed as in vivo. Conditions: rabbit. The method, then:
The wavelength for detection of UC781 is 290 nm.
An in-vivo experiment was done in duplicate in rabbits (about 3.6 kg, New Zealand white, female), performed according to protocol #I99-054 approved by the IACUC of UMDNJ-Robert Wood Johnson Medical School. […] Blood samples were drawn from the auricular artery of the opposite ear prior to and at predetermined time points after injection. Immediately after the blood was drawn, 1 ml was mixed with 2 ml of acetonitrile, vortexed, kept on ice for 10 min and then centrifuged at 1000×g for 10 min at 4° C. The supernatant was collected and analyzed by reverse phase HPLC, as described above. Blood levels were determined with time by HPLC with and without the DTT reductive cleavage step (FIG. 7).

Data set [4] can be described thus: Kinetics following intramuscular injection of PEG-S-S-UC781 in mice. The data set is classed as in vivo. The method, then: An in-vivo experiment was done twice in mice (about 25 g, […]), performed according to protocol #I00-001, approved by the IACUC. […] Twenty mg, equivalent to 0.5 mg of UC781, was dissolved in 1 ml of PBS and injected into the leg muscle. At each time point, a mouse was euthanized, blood was collected and the injected muscle was removed. The blood samples were treated with 2 volumes of acetonitrile as described above. The tissue samples were homogenized with 1 ml of PBS and then treated with 2 volumes of acetonitrile, as above. The samples were then analyzed by reverse phase HPLC. […] Recovery and extraction efficiency from the muscle was tested by injection into the excised muscle from a freshly euthanized mouse.

Data set [5] is described as follows: in vitro. Conditions: rabbit.
Description: UC781 was analyzed using an HPLC reverse phase column, PRP-1 (Hamilton, Reno, Nev.), under the following condition: mobile phase A: 20% acetonitrile, mobile phase B: 90% acetonitrile, flow rate: 1 ml/min. Gradient: 0-2 min, 100% A; 2-20 min, linear gradient from 100% A to 100% B; 20-28 min, 100% B; 28—30 min, linear gradient from 100% B to 100% A; 30-35 min, 100% A. Under these experimental conditions, the retention time for UC781 is 24.2 min. The wavelength for detection of UC781 is 290 nm.
To each 1 ml sample of EDTA-treated rabbit blood, 2 ml of acetonitrile was added, mixed and kept on ice for 10 min. The mixture was centrifuged at 1000×g for 10 min. The supernatant was collected and an aliquot (300 μl) was injected into the reverse phase column. […] After centrifugation, 400 μl of the supernatant was analyzed, either without or with DTT pretreatment (3 mM for 2 hours at room temperature).
However, prior reduction with DTT should give the total concentration of UC781 since the conjugated UC781 is converted into the free form prior to HPLC. […] Recovery through the extraction procedure was determined by spiking a known amount of either free or conjugated UC781 into EDTA-treated rabbit blood prior to acetonitrile extraction.

Consider `O=c1[nH]c(=S)ccn1[C@@H]1O[C@H](CO)[C@@H](O)[C@H]1O` [4-thiouridine, 4-Thiouridine], for which, in data set [1], the “release of drug from conjugate by DTT” value is listed as “reductively released”.
With `CC(C)=CCOc1cc(NC(=S)c2ccoc2C)ccc1Cl` [UC781, N-[4-chloro-3-(3-methyl-2-butenyloxy)phenyl]-2-methyl-3-furancarbothioamide], the “UC781 concentration found by RT assay” value in data set [2] (HPLC peak fraction of rabbit blood 5 min after iv PEG-S-S-UC781) was 26 nM; in data set [2] (authentic UC781 standard HPLC fraction), 27 nM. Further, the “activity of compound recovered from blood” value in data set [2] (RT assay, blood versus standard) is given as “fully active”. The “UC781 concentration in plasma higher than in matched whole blood” value in data set [3] (EDTA-treated blood, duplicate sample) is listed as “about 10%”. In addition, the “half-life of UC781 in the bloodstream” value in data set [3] (after iv PEG-S-S-UC781) is reported as “several minutes”. Further, the “level of UC781 in tissue samples” value in data set [4] (mouse injected muscle, after 1 hour) was “more than 10%”. In data set [4] (mouse, im, HPLC), the “UC781 in blood samples” value is reported as “below the detection limit”. In data set [5], this compound returned a recovery at 10 min, 10 µg/mL of 113%.
